Measurements as given in PubChem BioAssay (NCI).
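Method: 48-hour compound exposure of cells in 96-well plates, five concentrations, linear interpolation of endpoints. GI50 marks 50% less growth. TGI is the concentration that stops growth completely.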

Experiments:
Assay in all cases: inhibition of tumour cell growth, NCI panel, 48 h
SN12C renal = system: SN12C renal
HL-60(TB) leukemia = system: HL-60(TB) leukemia
M14 melanoma = system: M14 melanoma
CAKI-1 renal = system: CAKI-1 renal
UACC-62 melanoma = system: UACC-62 melanoma
786-0 renal = system: 786-0 renal
SR leukemia = system: SR leukemia
EKVX NSCLC = system: EKVX NSCLC
NCI-H522 lung = system: NCI-H522 lung
COLO 205 colon = system: COLO 205 colon

Structure (SMILES) | GI50 (SN12C renal) [µM] | TGI (SN12C renal) [µM] | GI50 (HL-60(TB) leukemia) [µM] | TGI (HL-60(TB) leukemia) [µM] | GI50 (M14 melanoma) [µM] | TGI (M14 melanoma) [µM] | GI50 (CAKI-1 renal) [µM] | TGI (CAKI-1 renal) [µM] | GI50 (UACC-62 melanoma) [µM] | TGI (UACC-62 melanoma) [µM] | GI50 (786-0 renal) [µM] | TGI (786-0 renal) [µM] | GI50 (SR leukemia) [µM] | TGI (SR leukemia) [µM] | GI50 (EKVX NSCLC) [µM] | TGI (EKVX NSCLC) [µM] | GI50 (NCI-H522 lung) [µM] | TGI (NCI-H522 lung) [µM] | GI50 (COLO 205 colon) [µM] | TGI (COLO 205 colon) [µM]
C[C@@H](NC(=O)/C(C#N)=C/c1ccc([N+](=O)[O-])cc1)c1ccccc1 | 2.11 | 4.85 | 2.42 | 5.51 | 2.05 | 4.42 | 2.37 | 6.47 | 1.8 | 3.71 | 2.54 | 8.84 | 1.73 | 5.55 | 6.81 | 20.7 | 1.71 | 3.47 | 2 | 3.71
COc1ccc2c(c1)CC[C@@H]1[C@@H]2CC[C@]2(C)c3c(cc(C(=O)O)c4sccc34)C[C@@H]12 | 17.8 | 41.3 | 8.61 | 25.3 | 18.2 | 37.1 | 33.8 | 63.7 | 17.1 | 36.5 | 16.9 | 32.5 | 16.4 | 45.1 | 16.2 | 40.5 | 24.7 | 86.8 | 16.4 | 70
Cn1nc(C(F)(F)F)cc1-c1c[nH]c(OCc2ccc(Cl)cc2)c(-c2ccc(Cl)c(C(F)(F)F)c2)c1=O | 0.755 | 6.95 | 1.09 | 2.55 | 1.27 | 4.26 | 0.917 | 2.91 | 0.516 | 2.29 | 1.25 | 4.37 | 1.09 | > 14.3 | 1.39 | > 50 | 0.552 | 6.15 | 0.935 | 1.97
[Cl][Hg][c]1ccc(Cl)s1 | 2.95 | 8.19 | 2.1 | 6.29 | 1.55 | 3.17 | 1.69 | 3.29 | 1.57 | 3.46 | 1.29 | 2.61 | 0.319 |  | 5.72 | 20.2 | 0.114 | 0.325 | 1.39 | 2.9
C[C@@H]1CCC([C@@H](C)[C@H]2CC[C@H]3[C@@H]4CC[C@H]5C[C@@H](O)CC[C@]5(C)[C@H]4CC[C@]23C)=NC1 |  | > 100 |  | > 21.2 |  | > 48.9 |  | 66.6 |  | > 70.8 |  | > 56.2 |  | > 100 |  | > 100 |  | 30.7 |  | > 53.2
